In US7138361B2, “Herbicidal heterocycles” (E. I. du Pont de Nemours and Company, priority 2000, dated 2006):

What was measured:
Format in all cases: in vivo
[1] = tested on: lambsquarters (Chenopodium album); assay: Test B postemergence; conditions: 13 to 15 days
How it was run: (§1)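 Preemergence: seeds planted and treated with test chemicals in non-phytotoxic solvent with surfactant; postemergence on plants 2–18 cm (1- to 4-leaf stage). Kept in greenhouse 13–15 days, then visually rated against controls on a 0 (no effect) to 100 (complete control) scale.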

[2] = tested on: barnyardgrass (Echinochloa crus-galli); assay: Test B postemergence; conditions: 13 to 15 days
How it was run: as §1

[3] = tested on: crabgrass (Digitaria sanguinalis); assay: Test B postemergence; conditions: 13 to 15 days
How it was run: as §1

[4] = tested on: morning glory (Ipomoea hederacea); assay: Test B postemergence; conditions: 13 to 15 days
How it was run: as §1

[5] = tested on: pigweed (Amaranthus retroflexus); assay: Test B postemergence; conditions: 13 to 15 days
How it was run: as §1

[6] = tested on: cocklebur (Xanthium strumarium); assay: Test B postemergence; conditions: 13 to 15 days
How it was run: as §1

[7] = tested on: wheat (Triticum aestivum); assay: Test B postemergence; conditions: 13 to 15 days
How it was run: as §1

[8] = tested on: Surinam grass (Brachiaria decumbens); assay: Test B postemergence; conditions: 13 to 15 days
How it was run: as §1

corn (Zea mays) [9] = assay: Test B postemergence; conditions: 13 to 15 days
How it was run: as §1

[10] = tested on: giant foxtail (Setaria faberii); assay: Test B postemergence; conditions: 13 to 15 days
How it was run: as §1

wild oat (Avena fatua) = assay: Test B postemergence; conditions: 13 to 15 days
How it was run: as §1

[11] = tested on: blackgrass (Alopecurus myosuroides); assay: Test B postemergence; conditions: 13 to 15 days
How it was run: as §1

[12] = tested on: velvetleaf (Abutilon theophrasti); assay: Test B postemergence; conditions: 13 to 15 days
How it was run: as §1

[13] = tested on: lambsquarters (Chenopodium album); assay: Test B preemergence
How it was run: as §1

[14] = tested on: barnyardgrass (Echinochloa crus-galli); assay: Test B preemergence
How it was run: as §1

rice (Oryza saliva) [15] = assay: Test B preemergence
How it was run: as §1

[16] = tested on: crabgrass (Digitaria sanguinalis); assay: Test B preemergence
How it was run: as §1

[17] = tested on: morning glory (Ipomoea hederacea); assay: Test B preemergence
How it was run: as §1

[18] = tested on: pigweed (Amaranthus retroflexus); assay: Test B preemergence
How it was run: as §1

[19] = tested on: cocklebur (Xanthium strumarium); assay: Test B preemergence
How it was run: as §1

[20] = tested on: Surinam grass (Brachiaria decumbens); assay: Test B preemergence
How it was run: as §1

corn (Zea mays) [21] = assay: Test B preemergence
How it was run: as §1

[22] = tested on: giant foxtail (Setaria faberii); assay: Test B preemergence
How it was run: as §1

[23] = tested on: velvetleaf (Abutilon theophrasti); assay: Test B preemergence
How it was run: as §1

rice (Oryza saliva) [24] = assay: Test C flooded paddy test; conditions: for Rice plant response rating: Flooded Paddy, scale 0 to 100, 0 no effect, 100 complete control; for Plant response rating, Rice: flooded paddy test, scale 0 to 100 (0 no effect, 100 complete control)
How it was run: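 Visual ratings (0 = no effect, 100 = complete control) were made 12–14 days after treatment, relative to greenhouse controls. Plants in the flooded paddy test were rice, smallflower flatsedge, duck salad and barnyardgrass, treated at the 2-leaf stage.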

Sunflower = assay: Test C preemergence; conditions: Rate 250 g/ha, scale 0 to 100, 0 no effect, 100 complete control
[25] = Rate 125 g/ha, scale 0 (no effect) to 100 (complete control)
[26] = Rate 500 g/ha, scale 0 to 100, 0 is no effect, 100 is complete control
[27] = Preemergence, Rate 500 g/ha, scale 0 to 100, 0 no effect, 100 complete control
[28] = preemergence, Rate 125 g/ha, scale of 0 to 100 where 0 is no effect and 100 is complete control, 13 to 15 days

COC(=O)c1cccc(N2CCC(n3ccc(C(C)(C)C)n3)C2=O)c1 (stereo not drawn) [Compound 73]
Plant response rating, Lambsquarters [1, 25]: 0 | Plant response rating, Lambsquarters [1, 26]: 70 | Plant response rating, Barnyardgrass [2, 25]: 30 | Plant response rating, Barnyardgrass [2, 26]: 90 | Plant response rating, Crabgrass [3, 25]: 0 | Plant response rating, Crabgrass [3, 26]: 50 | Plant response rating, Morningglory [4, 25]: 20 | Plant response rating, Morningglory [4, 26]: 20 | Plant response rating, Pigweed [5, 25]: 20 | Plant response rating, Pigweed [5, 26]: 90 | Plant response rating, Cocklebur [6, 25]: 20 | Plant response rating, Cocklebur [6, 26]: 90 | Plant response rating, Wheat [7, 25]: 0 | Plant response rating, Wheat [7, 26]: 0 | Plant response rating, Surinam grass [8, 25]: 0 | Plant response rating, Surinam grass [8, 26]: 0 | Plant response rating, Corn (corn (Zea mays) [9]; [25]): 30 | Plant response rating, Corn (corn (Zea mays) [9]; [26]): 40 | Plant response rating, Foxtail, Giant [10, 25]: 20 | Plant response rating, Foxtail, Giant [10, 26]: 50 | Plant response rating, Wild Oat (wild oat (Avena fatua); [25]): 0 | Plant response rating, Wild Oat (wild oat (Avena fatua); [26]): 0 | Plant response rating, Blackgrass [11, 25]: 0 | Plant response rating, Blackgrass [11, 26]: 0 | Plant response rating, Velvetleaf [12, 25]: 50 | Plant response rating, Velvetleaf [12, 26]: 70 | Plant response rating, Lambsquarters [13, 27]: 100 | Plant response rating, Lambsquarters [13, 28]: 100 | Plant response rating, Barnyardgrass [14, 27]: 100 | Plant response rating, Barnyardgrass [14, 28]: 100 | Plant response rating, Rice (rice (Oryza saliva) [15]; [27]): 40 | Plant response rating, Rice (rice (Oryza saliva) [15]; [28]): 30 | Plant response rating, Crabgrass [16, 27]: 100 | Plant response rating, Crabgrass [16, 28]: 100 | Plant response rating, Morningglory [17, 27]: 100 | Plant response rating, Morningglory [17, 28]: 0 | Plant response rating, Pigweed [18, 27]: 100 | Plant response rating, Pigweed [18, 28]: 100 | Plant response rating, Cocklebur [19, 27]: 90 | Plant response rating, Cocklebur [19, 28]: 0 | Plant response rating, Surinam grass [20, 27]: 90 | Plant response rating, Surinam grass [20, 28]: 50 | Plant response rating, Corn (corn (Zea mays) [21]; [27]): 30 | Plant response rating, Corn (corn (Zea mays) [21]; [28]): 0 | Plant response rating, Foxtail, Giant [22, 27]: 100 | Plant response rating, Foxtail, Giant [22, 28]: 100 | Plant response rating, Velvetleaf [23, 27]: 100 | Plant response rating, Velvetleaf [23, 28]: 90 | Rice plant response rating (rice (Oryza saliva) [24]; Rate 250 g/ha): 50 | Rice plant response rating (rice (Oryza saliva) [24]; Rate 500 g/ha): 60 | Plant response rating, Rice (rice (Oryza saliva) [24]; Rate 62 g/ha): 0 | Plant response rating, Rice (rice (Oryza saliva) [24]; Rate 125 g/ha): 20 | Plant response rating, Sunflower (Sunflower): 70

CCCC(C)c1ccn(C2SCN(c3cccc(OC(F)(F)F)c3)C2=O)n1 (stereo not drawn) [Compound 90]
Plant response rating, Lambsquarters [1, 26]: 100 | Plant response rating, Barnyardgrass [2, 25]: 20 | Plant response rating, Barnyardgrass [2, 26]: 80 | Plant response rating, Crabgrass [3, 25]: 20 | Plant response rating, Crabgrass [3, 26]: 50 | Plant response rating, Morningglory [4, 26]: 70 | Plant response rating, Pigweed [5, 26]: 90 | Plant response rating, Cocklebur [6, 25]: 20 | Plant response rating, Cocklebur [6, 26]: 60 | Plant response rating, Wheat [7, 26]: 0 | Plant response rating, Surinam grass [8, 25]: 0 | Plant response rating, Surinam grass [8, 26]: 30 | Plant response rating, Corn (corn (Zea mays) [9]; [25]): 0 | Plant response rating, Corn (corn (Zea mays) [9]; [26]): 10 | Plant response rating, Foxtail, Giant [10, 25]: 0 | Plant response rating, Foxtail, Giant [10, 26]: 40 | Plant response rating, Wild Oat (wild oat (Avena fatua); [26]): 20 | Plant response rating, Blackgrass [11, 25]: 0 | Plant response rating, Blackgrass [11, 26]: 0 | Plant response rating, Velvetleaf [12, 26]: 40 | Plant response rating, Lambsquarters [13, 27]: 100 | Plant response rating, Lambsquarters [13, 28]: 100 | Plant response rating, Barnyardgrass [14, 27]: 100 | Plant response rating, Barnyardgrass [14, 28]: 50 | Plant response rating, Rice (rice (Oryza saliva) [15]; [27]): 0 | Plant response rating, Rice (rice (Oryza saliva) [15]; [28]): 0 | Plant response rating, Crabgrass [16, 27]: 100 | Plant response rating, Crabgrass [16, 28]: 90 | Plant response rating, Morningglory [17, 27]: 0 | Plant response rating, Morningglory [17, 28]: 0 | Plant response rating, Pigweed [18, 27]: 100 | Plant response rating, Pigweed [18, 28]: 80 | Plant response rating, Cocklebur [19, 27]: 0 | Plant response rating, Cocklebur [19, 28]: 0 | Plant response rating, Surinam grass [20, 27]: 80 | Plant response rating, Surinam grass [20, 28]: 20 | Plant response rating, Corn (corn (Zea mays) [21]; [27]): 20 | Plant response rating, Corn (corn (Zea mays) [21]; [28]): 0 | Plant response rating, Foxtail, Giant [22, 27]: 100 | Plant response rating, Foxtail, Giant [22, 28]: 80 | Plant response rating, Velvetleaf [23, 27]: 0 | Plant response rating, Velvetleaf [23, 28]: 0 | Rice plant response rating (rice (Oryza saliva) [24]; Rate 250 g/ha): 0 | Rice plant response rating (rice (Oryza saliva) [24]; Rate 500 g/ha): 20 | Plant response rating, Rice (rice (Oryza saliva) [24]; Rate 62 g/ha): 0 | Plant response rating, Rice (rice (Oryza saliva) [24]; Rate 125 g/ha): 0 | Plant response rating, Sunflower (Sunflower): 10

CCOc1cc(N2CCC(n3ccc(C(C)(C)C)n3)C2=O)ccc1C (stereo not drawn) [Compound 106]
Plant response rating, Lambsquarters [1, 26]: 100 | Plant response rating, Barnyardgrass [2, 25]: 0 | Plant response rating, Barnyardgrass [2, 26]: 0 | Plant response rating, Crabgrass [3, 25]: 0 | Plant response rating, Crabgrass [3, 26]: 0 | Plant response rating, Morningglory [4, 26]: 100 | Plant response rating, Pigweed [5, 26]: 90 | Plant response rating, Cocklebur [6, 25]: 90 | Plant response rating, Cocklebur [6, 26]: 90 | Plant response rating, Wheat [7, 26]: 0 | Plant response rating, Surinam grass [8, 25]: 0 | Plant response rating, Surinam grass [8, 26]: 0 | Plant response rating, Corn (corn (Zea mays) [9]; [25]): 0 | Plant response rating, Corn (corn (Zea mays) [9]; [26]): 0 | Plant response rating, Foxtail, Giant [10, 25]: 0 | Plant response rating, Foxtail, Giant [10, 26]: 0 | Plant response rating, Wild Oat (wild oat (Avena fatua); [26]): 0 | Plant response rating, Blackgrass [11, 25]: 0 | Plant response rating, Blackgrass [11, 26]: 0 | Plant response rating, Velvetleaf [12, 26]: 80 | Plant response rating, Lambsquarters [13, 27]: 100 | Plant response rating, Lambsquarters [13, 28]: 100 | Plant response rating, Barnyardgrass [14, 27]: 100 | Plant response rating, Barnyardgrass [14, 28]: 90 | Plant response rating, Rice (rice (Oryza saliva) [15]; [27]): 100 | Plant response rating, Rice (rice (Oryza saliva) [15]; [28]): 0 | Plant response rating, Crabgrass [16, 27]: 100 | Plant response rating, Crabgrass [16, 28]: 100 | Plant response rating, Morningglory [17, 27]: 100 | Plant response rating, Morningglory [17, 28]: 100 | Plant response rating, Pigweed [18, 27]: 100 | Plant response rating, Pigweed [18, 28]: 100 | Plant response rating, Cocklebur [19, 27]: 100 | Plant response rating, Cocklebur [19, 28]: 30 | Plant response rating, Surinam grass [20, 27]: 100 | Plant response rating, Surinam grass [20, 28]: 100 | Plant response rating, Corn (corn (Zea mays) [21]; [27]): 30 | Plant response rating, Corn (corn (Zea mays) [21]; [28]): 30 | Plant response rating, Foxtail, Giant [22, 27]: 60 | Plant response rating, Foxtail, Giant [22, 28]: 40 | Plant response rating, Velvetleaf [23, 27]: 100 | Plant response rating, Velvetleaf [23, 28]: 0 | Rice plant response rating (rice (Oryza saliva) [24]; Rate 250 g/ha): 60 | Rice plant response rating (rice (Oryza saliva) [24]; Rate 500 g/ha): 90 | Plant response rating, Rice (rice (Oryza saliva) [24]; Rate 62 g/ha): 20 | Plant response rating, Rice (rice (Oryza saliva) [24]; Rate 125 g/ha): 60 | Plant response rating, Sunflower (Sunflower): 90
